# Legend:
# [1] = test system: MYST type of histone acetyltransferase (Tip60 and MOF); conditions: cited from earlier work
# [2] = test system: histone H3 acetylation in NALM6 cells overexpressing KANSL1; experiment: Histone H3 acetylation quantification in NALM6 cells overexpressing KANSL1 after MG-149 treatment; format: cell-based, human; conditions: 20 μM MG-149 added 24 h after KANSL1 plasmid transfection; histones extracted 48 h after transfection; FIG. 15
# Description: NALM6 cell line was grown in RPMI (ATCC) supplemented with 10% fetal bovine serum (FBS) (Life Technologies), 0.1% L-Glutamine and 0.1% Penicillin Streptomycin (PS) (Life Technologies). Cells were cultured in a humidified atmosphere in an incubator at 37° C. with 5% CO2. Plasmid overexpression transfection was done by electroporation, using the Amaxa® Nucleofector technology (Lonza). Purified plasmid was sent to Maxi-Prep (Hy-Labs) and a concentration of 2 μg was taken for the transfection. As a negative control, a Green Fluorescent Protein (GFP) plasmid provided by the Amaxa kit was used.
# Histones were extracted 48 h after transfection. Total histone protein concentration was adjusted to 400 ng/μl. Histone acetylation quantification was analyzed according to the manufacture's protocol (Epigentek).
compound,measurement,setting,value
CCCCCCCc1ccc(CCc2cccc(O)c2C(=O)O)cc1 [MG-149],selectivity toward MYST type histone acetyltransferase,[1],selectivity toward the MYST type of histone acetyltransferase (Tip60 and MOF)
same,acetylation of histone H3 (total H3 acetylation level),[2],inhibited to near control levels

# Source: patent publication US20180179596A1, “HISTONE MODIFICATION AGENTS FOR CANCER TREATMENT” (MOR RESEARCH APPLICATIONS LTD., priority 2015, published 2018)
